# Reference: US4510149A, “N-Imidazolyl derivatives containing naphthalene or indene nucleus” (Farmitalia Carlo Erba S.p.A., priority 1982, dated 1985)
# “Also recorded” adds a separate entry of the source.
# Tests used:
# [1] = orientative acute toxicity, single oral administration, mice; conditions: in vivo, mouse, same procedure
# Method: The toxicity of the compounds of the invention is negligible, therefore they can be safely used in therapy. Nine hours food deprived mice and rats were treated orally with single administration of increasing doses, then housed and normally fed. The orientative acute toxicity (LD50) was assessed on the seventh day after the treatment and resulted higher than 3000 mg/kg.
# [2] = tested on: collagen-induced platelet aggregation; test: in vitro inhibition of collagen-induced platelet aggregation in platelet rich plasma; format: cell-based, guinea pig; conditions: for inhibition at 12.5 µg/mL: in vitro concentration 12.50 mcg/ml
# Method: (§1) The platelet antiaggregatory activity of the compounds of the invention was evaluated in vitro and in vivo, for example, according to the modified methods of Born [Born G. V. R., Nature 194, 927 (1962)] and Silver [Silver M. J., Science 183, 1085 (1974)].
# (§2) The compounds of this invention were found in vitro to have inhibitory activity on platelet aggregation induced by collagen or ADP (adenosine-5'-disphosphate) in platelet rich plasma of guinea pig [Dunkin Hantley Iva: PDH (SPF) Ivanovas GmBH, Germany].
# [3] = tested on: male rats fed hypercholesterolaemic diet; test: Experiment No. 1: serum lipids in rats fed hypercholesterolaemic diet; format: in vivo, rat (Icem: CER (SPF Caw)); conditions: 4 days
# Method: (§3) The introduction of this new substituent in the new bicyclic compounds has therefore unexpectedly strenghtened these activities. The activity of this particular group of compounds of this invention and of the compounds of the above mentioned U.S. Patent and U.K. published Patent Application was evaluated on groups of Icem: CER (SPF Caw) male rats either fed for six days with hypercholesterolaemic diet according to C. E. Day [Schurr P. E., Schultz H. R., Day C. E. (Eds) Atherosclerosis and drug discovery--Plenum Pub. Corp., 217 (1976)] (Experiment No. 1) or fed standard diet [Altromin] (Experiment No. 2). "Altromin" is a trade mark.
# (§4) The compounds were suspended in "Methocel" (methyl cellulose, a 0.5% suspension in water) and administered by stomach tube for 4 days.
# (§5) Groups of animals were treated with the suspending agent only (control groups).
# (§6) The total serum cholesterol was determined with the method of Trinder P. J. [J.Clin.Pathol., 22, 246 (1969)].
# The total serum HDL cholesterol was determined according to Demacker P. N. M. [Clin. Chem., 23, 1238, (1977)].
# Statistical analysis in experiment No. 1 was performed by the Student's t test for independent samples or by the Cochran's test when the variances were not homogeneous at the F ratio test [Bliss C. I.--Statistics in Biology, Vol. 1, page 213--Mc Graw Hill Book Company, New York, 1967; Cochran W. G., Cox G. M.--Experimental designs--J. Wiley & Sons Inc., New York, II Ed. (1968) page 100].
# [4] = tested on: male rats fed standard diet; test: Experiment No. 2: serum lipids in rats fed standard Altromin diet; format: in vivo, rat (Icem: CER (SPF Caw)); conditions: 4 days
# Method: as §3, §4, §5, §6
# The serum triglycerides were determined with the method of Mendex J. [J. Clin. Chem., 21, 768, (1975)].
# W.--J. Amer. Stat. Ass., 50, 1096 (1955)].
# male SHR rats = test: development of hypertension in SHR rats, mean systemic pressure after seven weeks oral treatment; format: in vivo, rat (SHR)
# Method: For example, one of the compound of this invention, i.e. compound FCE 22178, was given orally to nine male SHR rats for seven weeks at the dosage of 9 mg/kg.
# The mean systemic pressure was monitored on an eight channels Beckman polygraph via a Statham pressure transducer, connected to a PE 60 catheter, inserted, 24 hours before monitored, into the left carotid artery.
# TxA2 synthetase = test: serum TxB2 concentration in rats after single oral dose (activity on TxA2 synthetase in vivo); set-up: species or system rat; conditions: 2 hours
# Method: (§7) The activity on TxA2 and PGI2 synthetase has been evaluated in vivo. For example, rats were treated with a single oral dose of compound and killed 2 hours later. TxB2 and 6-keto-PGF1α concentrations, the stable metabolites of TxA2 and PGI2 respectively, were determined on serum and plasma respectively.
# [5] = tested on: arachidonic acid (1.4 mg/kg) induced mortality in rabbits; test: arachidonic acid induced mortality in rabbits; format: in vivo, rabbit (New Zealand White)
# Method: as §1
# The compound FCE 22178 was also suspended in Methocel® and administered orally by gavage to rabbits (New Zealand White) at 2 mg/kg one hour before the injection of 1.4 mg/kg of arachidonic acid.
# PGI2 synthetase = test: plasma 6-keto-PGF1α concentration in rats after single oral dose (activity on PGI2 synthetase in vivo); set-up: species or system rat; conditions: 2 hours
# Method: as §7
# [6] = tested on: ADP-induced platelet aggregation; test: in vitro inhibition of ADP-induced platelet aggregation in platelet rich plasma; format: cell-based; conditions: guinea pig platelet rich plasma
# Method: as §1, §2
# [7] = tested on: thromboxane A2 (TXA2) synthetase; conditions: literature / prior filings; cited from earlier work
structure (smiles),measurement,setting,value
"COc1ccc2c(c1)CCC(Cn1ccnc1)=C2 [1,2-dihydro-3-(1-imidazolylmethyl)-7-methoxy-naphthalene]",LD50 at 168 h,[1],< 200 mg/kg
"C1=C(Cn2ccnc2)CCc2ccccc21 [1,2-dihydro-3-(1-imidazolylmethyl)-naphthalene]",LD50 at 168 h,[1],< 200 mg/kg
"O=C1c2cc(Cl)ccc2OCC1n1ccnc1 (stereo not shown) [FCE 20204, 3-(1-imidazolyl)-2,3-dihydro-6-chloro-4H-1-benzopyran-4-one, reference compound]",inhibition at 12.5 µg/mL,"[2]; Cavia porcellus, Platelet",0%
same,"Serum HDL cholesterol, % variation vs. controls",[3]; 25 mg/kg/os,+49 % variation vs. controls
same,"Total serum cholesterol, % variation vs. controls",[3]; 25 mg/kg/os,+7 % variation vs. controls
"COc1ccc2c(c1)C(=O)C(n1ccnc1)CC2 (stereo not shown) [FCE 21848, 2-(1-imidazolyl)-3,4-dihydro-7-methoxy-1(2H)-naphthalenone, reference compound]","Serum triglycerides, % variation vs. controls",[4]; 50.00 mg/kg/os,inactive
same,"Total serum cholesterol, % variation vs. controls",[4]; 50.00 mg/kg/os,inactive
same,inhibition at 12.5 µg/mL,"[2]; Cavia porcellus, Platelet",0%
"O=C(O)c1ccc2c(c1)C=C(n1ccnc1)CC2 [FCE 22178, 1,2-dihydro-3-(1-imidazolyl)-6-carboxy-naphthalene]",development of hypertension,male SHR rats; 9 mg/kg orally for seven weeks,decreased the development of hypertension
same,"Mean systemic pressure, Treated","male SHR rats; 9 mg/kg orally, 7 weeks, controls 177 ± 5.06",154.8 ± 14.1 mm Hg ± E.S.
same,reduction of serum TxB2 concentration,TxA2 synthetase; 100 mg/kg,90%
same,reduction of serum TxB2 concentration,TxA2 synthetase; dosed up to 9 mg/kg,up to 70%
same,effect on arachidonic acid induced mortality,[5]; 2 mg/kg orally,greatly decreases
same,Mortality,"[5]; 2 mg/kg/os, one hour before arachidonic acid 1.4 mg/kg, Methocel control 9/9",3/9
same,change of plasma 6-keto-PGF1α concentration,PGI2 synthetase; 100 mg/kg,doubled
same,increase of plasma 6-keto-PGF1α concentration,PGI2 synthetase; dosed up to 9 mg/kg,up to 30%
"COc1ccc2c(c1)C=C(n1ccnc1)CC2 [FCE 22466, 1,2-dihydro-3-(1-imidazolyl)-6-methoxy-naphthalene]",inhibition of collagen-induced platelet aggregation,[2]; 25 mcg/ml,totally inhibits collagen-induced platelet aggregation in three out of four samples
same,inhibition at 12.33 µg/mL,"[2]; Cavia porcellus, Platelet, in vitro concentration 12.33 mcg/ml",50%
same,activity on collagen-induced platelet aggregation,"[2]; in vitro, guinea pig platelet rich plasma",active
same,activity on ADP-induced platelet aggregation,[6],active
"CC(C)(Oc1ccc2c(c1)C=C(n1ccnc1)CC2)C(=O)O [FCE 22473, 1,2-dihydro-3-(1-imidazolyl)-6-(2-carboxy-isopropoxy)-naphthalene]","Serum triglycerides, % variation vs. controls",[4]; 16.67 mg/kg/os,-57 % variation vs. controls
same,"Total serum cholesterol, % variation vs. controls",[4]; 16.67 mg/kg/os,-32 % variation vs. controls
same,"Serum HDL cholesterol, % variation vs. controls",[3]; 27 mg/kg/os,+77 % variation vs. controls
same,"Total serum cholesterol, % variation vs. controls",[3]; 27 mg/kg/os,-73 % variation vs. controls
c1c[nH]cn1 [imidazole],inhibition of TxA2 synthetase,[7],able to inhibit; also recorded: only a very weak TXA2 inhibiting effect
